Data on 3 molecules can be found in publication PMC4774911, “Biochemical Screening of Five Protein Kinases from Plasmodium falciparum against 14,000 Cell-Active Compounds” (PLoS ONE, 2016).

Some targets named below: ABL2 (Homo sapiens, UniProt P42684); CDC42BPG (Homo sapiens, UniProt Q6DT37); PAK4 (Homo sapiens, UniProt O96013).
Holding throughout (assay): biochemical
Holding throughout (parameters): endogenous in cells; host or cells: K562 cell extract; species or system K562 (extract); replicate k of n = 2 (each experiment ID is one independent experiment; two experiment IDs per compound)
Common to all, as to conditions: read-out: KDapp

For the next test, the target named is T1, PRKD2 (Homo sapiens, UniProt Q9BZL6).
T1 sequence (Q9BZL6 1-878): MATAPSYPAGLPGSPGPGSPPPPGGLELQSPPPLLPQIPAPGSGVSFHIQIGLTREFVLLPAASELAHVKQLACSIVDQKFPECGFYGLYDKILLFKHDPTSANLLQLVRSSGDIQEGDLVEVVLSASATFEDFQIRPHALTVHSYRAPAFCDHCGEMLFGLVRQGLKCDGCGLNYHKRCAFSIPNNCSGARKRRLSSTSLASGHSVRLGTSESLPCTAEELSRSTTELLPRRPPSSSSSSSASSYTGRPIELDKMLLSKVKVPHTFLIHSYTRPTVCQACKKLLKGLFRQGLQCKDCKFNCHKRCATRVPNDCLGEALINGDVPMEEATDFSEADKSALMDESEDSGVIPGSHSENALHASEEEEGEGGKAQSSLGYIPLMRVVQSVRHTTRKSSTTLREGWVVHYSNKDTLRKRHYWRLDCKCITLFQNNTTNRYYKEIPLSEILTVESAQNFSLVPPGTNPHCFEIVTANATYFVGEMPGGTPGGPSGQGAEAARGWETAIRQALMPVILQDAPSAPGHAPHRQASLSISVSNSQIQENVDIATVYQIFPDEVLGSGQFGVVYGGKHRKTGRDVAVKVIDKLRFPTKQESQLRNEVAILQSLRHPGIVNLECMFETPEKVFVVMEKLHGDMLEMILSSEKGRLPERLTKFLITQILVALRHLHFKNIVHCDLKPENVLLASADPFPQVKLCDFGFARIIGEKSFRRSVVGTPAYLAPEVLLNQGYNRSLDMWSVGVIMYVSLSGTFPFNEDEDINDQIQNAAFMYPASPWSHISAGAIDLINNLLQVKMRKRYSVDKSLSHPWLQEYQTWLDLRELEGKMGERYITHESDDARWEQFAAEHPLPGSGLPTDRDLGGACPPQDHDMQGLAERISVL

The target of a further test is T2, PRKD3 (Homo sapiens, UniProt O94806).
T2 sequence (O94806 1-890): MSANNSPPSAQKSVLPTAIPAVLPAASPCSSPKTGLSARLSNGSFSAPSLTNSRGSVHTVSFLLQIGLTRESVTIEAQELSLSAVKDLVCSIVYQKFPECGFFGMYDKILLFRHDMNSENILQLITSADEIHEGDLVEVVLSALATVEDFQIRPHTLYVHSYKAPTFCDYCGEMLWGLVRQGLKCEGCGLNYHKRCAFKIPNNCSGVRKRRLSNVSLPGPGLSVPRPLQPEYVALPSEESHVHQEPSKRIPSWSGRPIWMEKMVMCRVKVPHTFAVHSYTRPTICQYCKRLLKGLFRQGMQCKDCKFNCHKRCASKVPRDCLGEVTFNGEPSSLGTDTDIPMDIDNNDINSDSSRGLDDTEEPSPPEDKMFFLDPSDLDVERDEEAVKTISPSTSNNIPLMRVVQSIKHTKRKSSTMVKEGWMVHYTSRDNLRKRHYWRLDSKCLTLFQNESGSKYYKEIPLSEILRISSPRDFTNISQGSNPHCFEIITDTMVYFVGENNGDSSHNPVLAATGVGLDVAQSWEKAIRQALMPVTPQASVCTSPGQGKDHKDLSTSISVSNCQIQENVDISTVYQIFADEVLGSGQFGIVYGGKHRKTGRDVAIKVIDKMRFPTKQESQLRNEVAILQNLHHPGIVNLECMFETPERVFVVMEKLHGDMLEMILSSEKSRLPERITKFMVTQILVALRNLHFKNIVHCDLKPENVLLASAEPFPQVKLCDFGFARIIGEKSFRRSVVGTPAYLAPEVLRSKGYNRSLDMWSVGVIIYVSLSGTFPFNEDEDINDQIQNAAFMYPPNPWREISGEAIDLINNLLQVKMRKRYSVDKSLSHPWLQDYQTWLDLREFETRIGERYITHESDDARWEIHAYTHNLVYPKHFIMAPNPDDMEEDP

The target in another test is T3, STK11 (Homo sapiens, UniProt Q15831).
T3 sequence (Q15831 1-433): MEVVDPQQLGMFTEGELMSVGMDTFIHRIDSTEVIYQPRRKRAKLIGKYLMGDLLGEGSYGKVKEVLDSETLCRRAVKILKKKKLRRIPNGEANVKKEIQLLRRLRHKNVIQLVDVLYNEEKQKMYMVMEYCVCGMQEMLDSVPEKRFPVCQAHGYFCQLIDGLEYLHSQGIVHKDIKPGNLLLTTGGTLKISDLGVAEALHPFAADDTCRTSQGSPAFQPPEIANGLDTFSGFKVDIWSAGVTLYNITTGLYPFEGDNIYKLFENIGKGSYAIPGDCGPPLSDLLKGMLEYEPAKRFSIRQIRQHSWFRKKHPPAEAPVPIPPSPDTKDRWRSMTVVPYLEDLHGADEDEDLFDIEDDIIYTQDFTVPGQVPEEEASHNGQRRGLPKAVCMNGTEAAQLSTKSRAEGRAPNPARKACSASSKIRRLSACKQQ

Structures are written as SMILES. Values joined by “and” are separate entries in the source; they are usually repeats but may differ in a detail not shown here. Equal values may be shown once.

Sequence of ABL2 (P42684 whole entry): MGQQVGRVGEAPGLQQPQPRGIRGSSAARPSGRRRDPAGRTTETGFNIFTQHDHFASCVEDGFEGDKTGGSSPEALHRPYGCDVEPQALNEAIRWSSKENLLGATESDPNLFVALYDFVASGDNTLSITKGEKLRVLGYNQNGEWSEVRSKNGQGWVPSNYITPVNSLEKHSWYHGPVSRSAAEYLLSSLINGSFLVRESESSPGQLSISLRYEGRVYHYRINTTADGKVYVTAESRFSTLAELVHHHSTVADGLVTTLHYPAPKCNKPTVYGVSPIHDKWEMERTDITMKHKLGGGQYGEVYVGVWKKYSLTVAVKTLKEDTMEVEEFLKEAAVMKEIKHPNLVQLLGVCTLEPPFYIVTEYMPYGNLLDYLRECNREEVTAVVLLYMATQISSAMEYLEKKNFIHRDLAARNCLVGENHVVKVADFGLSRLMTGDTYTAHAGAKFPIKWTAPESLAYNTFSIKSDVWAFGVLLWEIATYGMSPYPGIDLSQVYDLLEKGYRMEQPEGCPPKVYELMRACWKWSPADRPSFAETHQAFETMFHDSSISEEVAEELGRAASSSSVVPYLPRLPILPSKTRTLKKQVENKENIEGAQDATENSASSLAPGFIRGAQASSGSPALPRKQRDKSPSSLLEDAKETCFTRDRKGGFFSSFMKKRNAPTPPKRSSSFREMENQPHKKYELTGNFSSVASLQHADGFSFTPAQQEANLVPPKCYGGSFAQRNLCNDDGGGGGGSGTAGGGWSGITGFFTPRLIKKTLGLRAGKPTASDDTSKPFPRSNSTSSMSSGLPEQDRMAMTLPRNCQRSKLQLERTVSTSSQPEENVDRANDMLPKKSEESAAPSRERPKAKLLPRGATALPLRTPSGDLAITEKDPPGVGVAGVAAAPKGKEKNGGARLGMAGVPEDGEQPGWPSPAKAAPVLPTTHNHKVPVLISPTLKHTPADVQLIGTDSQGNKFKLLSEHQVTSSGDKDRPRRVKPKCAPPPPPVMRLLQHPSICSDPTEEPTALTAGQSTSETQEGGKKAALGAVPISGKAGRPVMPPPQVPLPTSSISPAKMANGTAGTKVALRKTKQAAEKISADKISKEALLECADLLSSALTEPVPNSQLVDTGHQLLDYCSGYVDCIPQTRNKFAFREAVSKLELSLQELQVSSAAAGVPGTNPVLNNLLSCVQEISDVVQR
Sequence of CDC42BPG (Q6DT37 whole entry): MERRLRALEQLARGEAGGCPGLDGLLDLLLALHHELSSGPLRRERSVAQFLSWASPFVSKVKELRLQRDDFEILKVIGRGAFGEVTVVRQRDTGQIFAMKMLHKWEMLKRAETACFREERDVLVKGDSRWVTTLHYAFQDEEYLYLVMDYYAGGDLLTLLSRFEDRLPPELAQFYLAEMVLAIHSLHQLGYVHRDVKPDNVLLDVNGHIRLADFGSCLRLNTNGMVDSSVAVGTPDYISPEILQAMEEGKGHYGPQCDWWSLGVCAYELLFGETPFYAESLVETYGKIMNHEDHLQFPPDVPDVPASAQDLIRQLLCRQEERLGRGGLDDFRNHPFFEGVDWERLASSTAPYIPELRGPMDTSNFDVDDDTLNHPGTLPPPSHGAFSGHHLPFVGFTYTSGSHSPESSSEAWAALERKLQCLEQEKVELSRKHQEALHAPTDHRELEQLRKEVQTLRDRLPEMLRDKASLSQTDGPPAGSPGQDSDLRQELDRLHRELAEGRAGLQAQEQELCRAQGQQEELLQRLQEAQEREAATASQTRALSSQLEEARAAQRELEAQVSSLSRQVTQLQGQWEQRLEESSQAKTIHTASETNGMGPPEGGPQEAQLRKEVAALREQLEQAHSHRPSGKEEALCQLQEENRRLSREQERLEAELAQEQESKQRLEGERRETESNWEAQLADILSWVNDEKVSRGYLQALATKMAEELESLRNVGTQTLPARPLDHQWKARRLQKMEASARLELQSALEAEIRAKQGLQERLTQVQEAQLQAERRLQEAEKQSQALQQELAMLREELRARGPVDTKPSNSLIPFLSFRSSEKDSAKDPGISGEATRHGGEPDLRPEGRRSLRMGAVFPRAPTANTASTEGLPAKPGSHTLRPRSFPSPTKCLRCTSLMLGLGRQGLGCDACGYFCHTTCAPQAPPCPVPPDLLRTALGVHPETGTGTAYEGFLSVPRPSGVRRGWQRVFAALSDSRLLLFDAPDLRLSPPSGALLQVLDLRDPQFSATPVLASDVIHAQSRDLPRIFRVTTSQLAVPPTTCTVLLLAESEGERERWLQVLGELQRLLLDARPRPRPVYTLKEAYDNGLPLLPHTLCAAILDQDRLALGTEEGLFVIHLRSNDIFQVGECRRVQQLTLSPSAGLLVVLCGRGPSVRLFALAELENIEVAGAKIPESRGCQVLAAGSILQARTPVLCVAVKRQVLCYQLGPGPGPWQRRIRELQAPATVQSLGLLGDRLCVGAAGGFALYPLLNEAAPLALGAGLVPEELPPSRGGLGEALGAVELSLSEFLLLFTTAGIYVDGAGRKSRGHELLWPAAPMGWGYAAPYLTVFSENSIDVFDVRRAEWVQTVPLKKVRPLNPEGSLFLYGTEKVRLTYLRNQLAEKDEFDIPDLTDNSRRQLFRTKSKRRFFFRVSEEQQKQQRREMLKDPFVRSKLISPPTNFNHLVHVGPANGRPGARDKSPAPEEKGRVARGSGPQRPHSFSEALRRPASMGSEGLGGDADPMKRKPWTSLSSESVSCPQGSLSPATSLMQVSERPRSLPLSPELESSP
Sequence of PAK4 (O96013 whole entry): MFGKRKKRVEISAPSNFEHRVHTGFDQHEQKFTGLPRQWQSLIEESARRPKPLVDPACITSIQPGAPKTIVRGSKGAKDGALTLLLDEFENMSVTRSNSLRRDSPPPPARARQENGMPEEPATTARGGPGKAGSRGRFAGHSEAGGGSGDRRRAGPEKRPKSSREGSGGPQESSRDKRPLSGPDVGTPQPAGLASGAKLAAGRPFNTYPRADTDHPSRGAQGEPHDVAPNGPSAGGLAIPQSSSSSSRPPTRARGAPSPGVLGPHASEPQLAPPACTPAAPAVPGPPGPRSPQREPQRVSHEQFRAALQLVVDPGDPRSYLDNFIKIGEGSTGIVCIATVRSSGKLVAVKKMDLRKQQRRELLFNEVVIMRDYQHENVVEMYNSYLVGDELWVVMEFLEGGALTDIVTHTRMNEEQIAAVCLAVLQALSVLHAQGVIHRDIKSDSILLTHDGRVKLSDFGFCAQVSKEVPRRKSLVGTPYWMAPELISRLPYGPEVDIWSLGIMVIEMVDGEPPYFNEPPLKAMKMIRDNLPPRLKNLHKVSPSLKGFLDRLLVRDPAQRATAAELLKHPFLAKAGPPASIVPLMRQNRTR

For `CN1CCN(c2ccc(Nc3ncc(C#N)c(Nc4ccccc4C(N)=O)n3)cc2)CC1.Cl` [TCMDC-134116], the Kd on ABL2 is 89.8 nM and 71.9 nM; on CDC42BPG it was 848 nM; at PAK4 it was 205 nM and 227 nM; at PRKD2 it was 165 nM and 160 nM; at PRKD3 it was 166 nM; on STK11, 894 nM.
As for `Cl.NCC1(c2nc(-c3ccc(Cl)c(O)c3)c(-c3ccncc3)[nH]2)CCCCC1` [TCMDC-141154], the Kd at ABL2 was 220 nM and 180 nM; on CDC42BPG it was 6790 nM; on PAK4, 4910 nM; at PRKD2, 2520 nM and 2080 nM; at PRKD3, 3910 nM; on STK11 it was 1250 nM.
As to `CN(C)CC(O)COc1ccc(Nc2ncc([N+](=O)[O-])c(Nc3ccccc3O)n2)cc1.O=C(O)C(F)(F)F` (stereo not drawn) [TCMDC-141399], the Kd is 1890 nM at ABL2; 8140 nM at CDC42BPG; 4850 nM and 3670 nM at PAK4; 921 nM at PRKD2; 4090 nM and 3410 nM on PRKD3; 3940 nM at STK11.
